Laboratory results as given in patent US20250262273A1, “MODIFIED CAVEOLIN-1 PEPTIDES FOR THE TREATMENT OF CHRONIC KIDNEY DISEASE” (Rein Therapeutics, Inc., priority 2021, published 2025).
Where “and” joins values, the source holds several entries; their conditions need not be identical. Equal entries are not always repeated. Non-standard residues stand in square brackets, D forms with d.

Assays:
[1] = test system: Col4a3−/− mice on a 129S1/SvlmJ background; assay: Col4a3−/− mouse model of Alport syndrome, Study 1: two weeks of treatment; format: in vivo; settings: for immunofluorescence staining of collagen I and nidogen on kidney tissue / immunofluorescence staining of collagen I and αSMA on kidney tissue: 0.0022 mg/g i.p. daily for 2 weeks, same finding in saline-treated mice
Source text: (§1) The objective of this study was to evaluate the efficacy of the modified Cav-1 peptide APi2355 in ameliorating kidney fibrosis and disease using the Col4a3−/− mouse model of Alport syndrome. Alport syndrome mice (knockouts) have reduced Cav-1 expression in glomerulae tubules and develop glomerular fibrosis.
Col4a3−/− on the 129S1/SvlmJ develop end-stage renal disease at a faster rate compared to Col4a3−/− mice on the C57BL/6 background. Five week-old (Cohort 2) and 6 week-old (Cohort 1) Col4a3−/− mice on a 129S1/SvlmJ background were intraperitoneally injected daily with APi2355 (SEQ ID NO: 8, 0.0022 mg/g body weight) or with normal saline for 2 weeks. Urine was collected prior to treatment and on the day of sacrifice to monitor for glomerular permselectivity by measuring albumin to creatinine (A/C) ratios. Blood was collected on the day of sacrifice to monitor for glomerular filtration rate by blood urea nitrogen (BUN) assay and kidney tissue was collected following sacrifice to assess for renal injury and fibrosis. Mouse identification numbers were used to differentiate treatment groups.

[2] = test system: Col4a3−/− mice on a 129S1/SvlmJ background; assay: Col4a3−/− mouse model of Alport syndrome, Study 2: four weeks of treatment; format: in vivo; settings: for Moderately Sclerotic Glom / Severely Sclerotic Glom / Moderately Sclerotic Glom (%) / Sclerotic Glom (%) / Severely Sclerotic Glom (%): 8 week-old, 4 weeks daily i.p. 0.0022 mg/g; for Moderately Sclerotic Glom / Severely Sclerotic Glom: count per individual mouse; for Moderately Sclerotic Glom (%) / Sclerotic Glom (%) / Severely Sclerotic Glom (%): per individual mouse
Description: as §1
Four week-old Col4a3−/− mice on a 129S1/SvlmJ background were intraperitoneally injected daily with APi2355 (SEQ ID NO: 8, 0.0022 mg/g body weight) or with normal saline for 4 weeks. Urine was collected prior to treatment at 4 weeks-old and at 6, 7, and 8-weeks-old following treatment to monitor for glomerular permselectivity by measuring albumin to creatinine (A/C) ratios. Blood was collected prior to treatment at 4 weeks-old and at 6 and 8 weeks-old following treatment to monitor for glomerular filtration rate using the BUN assay and kidney tissue was collected following sacrifice to assess for renal injury and fibrosis. Mouse identification numbers were used to differentiate treatment groups.

[3] = test system: bleomycin-treated aged male mice; assay: Bleomycin model of lung fibrosis in aged mice, Study 1 (Total Collagen Assay); format: in vivo, mouse; settings: bleomycin 4 U/kg intratracheal, mice 74 to 76 weeks-old, dry powder inhalation, compared to control peptide
Source text: (§2) The objective of this study was to evaluate the modified Cav-1 peptide CSP-7 in a bleomycin model of idiopathic pulmonary fibrosis and acute respiratory distress syndrome (ARDS). Aged male mice were selected to closely match the population of humans most vulnerable to ARDS.
Aged male mice, which have a higher burden of senescent cells and therefore less regenerative potential, were used to test the efficacy of CSP-7 (SEQ ID NO: 3). Mice were between 74 to 76 weeks-old at the time of intratracheal bleomycin installation (4 U/kg body weight; n=5-8 mice/group). The Total Collagen Assay (QuickZyme Biosciences) was used to assess total collagen in lung tissue, which first hydrolyzes proteins in the lung homogenate then oxidizes hydroxyproline and stains.

[4] = test system: BLM-treated aged mice; assay: Bleomycin model of lung fibrosis in aged mice, Study 2; format: in vivo; settings: BLM 8 U/kg intratracheal, 73-74 week-old mice, 0.5 mg/mouse dry powder inhalation from day 14, sacrifice day 21, compared to control peptide
Description: as §2
Bleomycin (BLM, 8 U/kg) was administered intratracheally to 73-74 week-old mice (n=52) expecting approximately 50% loss of mice due to BLM-induced lung injury. On day 14 post-instillation, CSP-7 and a control peptide (CP) was administered to mice via dry powder inhalation (DPI) or intraperitoneal injection (IP) as shown in Table B below. On day 21 post-instillation, mice were sacrificed and blood and tissues were collected for analysis. Statistics were performed using Dunnett's multiple comparison test.

[5] = Cohort 1 (treatment start 6 weeks-old)
[6] = Cohort 2 (treatment start 5 weeks-old)
[7] = treatment starting at 4 weeks of age, 4 weeks, vs saline

Ac-aaEGKASFTTFTVTKGSaa-NH2 (Ac-[dA][dA]EGKASFTTFTVTKGS[dA][dA]-NH2; SMILES CC(=O)N[C@H](C)C(=O)N[C@H](C)C(=O)N[C@@H](CCC(=O)O)C(=O)NCC(=O)N[C@@H](CCCCN)C(=O)N[C@@H](C)C(=O)N[C@@H](CO)C(=O)N[C@@H](Cc1ccccc1)C(=O)N[C@H](C(=O)N[C@H](C(=O)N[C@@H](Cc1ccccc1)C(=O)N[C@H](C(=O)N[C@H](C(=O)N[C@H](C(=O)N[C@@H](CCCCN)C(=O)NCC(=O)N[C@@H](CO)C(=O)N[C@H](C)C(=O)N[C@H](C)C(N)=O)[C@@H](C)O)C(C)C)[C@@H](C)O)[C@@H](C)O)[C@@H](C)O) [APi2355, modified Cav-1 peptide]
immunofluorescence staining of collagen I and nidogen on kidney tissue [1, 5]: additional staining in sclerotic glomeruli | immunofluorescence staining of collagen I and αSMA on kidney tissue [1, 5]: additional staining in sclerotic glomeruli | kidney sclerosis, overall ([1]; Cohort 1 and Cohort 2, 2 weeks of treatment, same in saline-treated mice): severe sclerosis in the interstitium and many sclerotic glomeruli | immunofluorescence staining of collagen I and nidogen on kidney tissue [1, 6]: additional staining in sclerotic glomeruli | immunofluorescence staining of collagen I and αSMA on kidney tissue [1, 6]: additional staining in sclerotic glomeruli | Moderately Sclerotic Glom ([2]; female Col4a3−/− mice): 0 and 1 (2×) | Severely Sclerotic Glom ([2]; female Col4a3−/− mice): 4 | Moderately Sclerotic Glom (%) ([2]; female Col4a3−/− mice): 0.0% and 2.0% and 2.1% | Sclerotic Glom (%) ([2]; female Col4a3−/− mice): 7.4% and 9.8% and 10.6% | Severely Sclerotic Glom (%) ([2]; female Col4a3−/− mice): 7.4% and 7.8% and 8.5% | percentage of sclerotic glomeruli as assayed by collagen I deposition ([2]; females, treatment starting at 4 weeks of age, 4 weeks, vs saline): reduced the percentage of sclerotic glomeruli in females | Moderately Sclerotic Glom ([2]; male Col4a3−/− mouse): 6 | Severely Sclerotic Glom ([2]; male Col4a3−/− mouse): 21 | Moderately Sclerotic Glom (%) ([2]; male Col4a3−/− mouse): 15.0% | Sclerotic Glom (%) ([2]; male Col4a3−/− mouse): 67.5% | Severely Sclerotic Glom (%) ([2]; male Col4a3−/− mouse): 52.5% | glomerular fibrosis ([2]; mouse model of Alport syndrome, overall conclusion): reduced glomerular fibrosis | progression of BUN [2, 7]: did not slow the progression | progression of albuminuria [2, 7]: did not slow the progression

FTTFTVT (Modified Caveolin-1 peptide) [CSP-7, seven amino acid fragment of the human CSD of caveolin-1]
total collagen in the lung [3]: reduction in total collagen | total collagen in the lung [4]: reduction in total collagen
